Article PMC3409642 (Pharmaceutical research, 2012)
Where two headings read alike, the source gives them in different places.

What was measured:
UGT1A9 [1] = biological target: T1, UGT1A9 (Homo sapiens, UniProt O60656); conditions: for Log (CLint) (Actual): recombinant enzyme
T1 sequence (O60656 26-530): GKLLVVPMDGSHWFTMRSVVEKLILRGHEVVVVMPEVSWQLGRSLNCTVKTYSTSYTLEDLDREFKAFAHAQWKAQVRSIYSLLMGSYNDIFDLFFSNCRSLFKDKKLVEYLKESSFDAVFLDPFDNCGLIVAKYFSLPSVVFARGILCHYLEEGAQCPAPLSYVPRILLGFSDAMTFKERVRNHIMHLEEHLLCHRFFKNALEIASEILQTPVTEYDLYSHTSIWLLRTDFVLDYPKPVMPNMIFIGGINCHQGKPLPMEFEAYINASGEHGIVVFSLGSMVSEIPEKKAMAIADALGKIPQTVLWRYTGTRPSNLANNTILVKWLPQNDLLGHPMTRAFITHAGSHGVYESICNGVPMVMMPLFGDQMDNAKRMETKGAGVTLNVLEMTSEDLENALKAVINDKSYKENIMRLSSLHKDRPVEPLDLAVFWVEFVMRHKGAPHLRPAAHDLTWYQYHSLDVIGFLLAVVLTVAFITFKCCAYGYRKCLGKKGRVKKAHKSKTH

UGT1A9 [2] = biological target: T1, UGT1A9; experiment: Kinetic profiling of glucuronidation by expressed human UGT1A9; conditions: for Log (CLint) (Actual): log of experimental CLint (μl/mg/min)

Compound: O=c1c(-c2ccc(O)cc2)coc2cc(O)ccc12 [compound 101, Daidzein]
- CLint (Vmax/Km) (UGT1A9 [1]; human, pH 7.4): 77 µL/min/mg
- Log (CLint) (Actual) (UGT1A9 [1]; human, pH 7.4): 1.89

Compound: CCOC(=O)c1ccc(O)cc1 [compound 130, Ethyl-4-hydroxybenzoate]
- Log (CLint) (Actual) (UGT1A9 [1]; human, pH 7.4): 1.61

Compound: COc1c(O)cc2oc(-c3ccccc3)cc(=O)c2c1O [compound 57, OroxylinA]
- Log (CLint) (Actual) (UGT1A9 [1]; human, pH 7.4): 2.94

Compound: COC(=O)c1ccc(O)cc1 [compound 132, Methyl-4-hydroxybenzoate]
- Log (CLint) (Actual) (UGT1A9 [1]; human, pH 7.4): 1.73

Compound: O=c1c(O)c(-c2ccc(O)cc2)oc2ccccc12 [compound 64, 3,4′-Dihydroxyfavone]
- CLint (Vmax/Km) (UGT1A9 [1]): 14000 µL/min/mg
- Log (CLint) (Actual) (UGT1A9 [1]; human): 4.14
- Km (UGT1A9 [1]; pH 7.4): 0.13 µM

Compound: O=c1c(O)c(-c2ccccc2)oc2ccc(O)cc12 [compound 65, 3,6-Dihydroxyfavone]
- CLint (Vmax/Km) (UGT1A9 [1]): 21000 µL/min/mg
- Log (CLint) (Actual) (UGT1A9 [1]; human): 4.32
- Km (UGT1A9 [1]; pH 7.4): 0.62 µM

Compound: COc1cc(-c2oc3cc(O)cc(O)c3c(=O)c2O)ccc1O [compound 87, Isorhamnetin]
- Log (CLint) (Actual) (UGT1A9 [1]; human, pH 7.4): 4.59

Compound: O=c1cc(-c2ccccc2)oc2cccc(O)c12 [compound 34, 5-Hydroxyflavone]
- Log (CLint) (Actual) (UGT1A9 [1]; human, pH 7.4): 2.09

Compound: O=c1cc(-c2ccc(O)cc2)oc2cc(O)cc(O)c12 [compound 50, Apigenin]
- Log (CLint) (Actual) (UGT1A9 [1]; human, pH 7.4): 3.23

Compound: CC(C)(c1ccc(O)cc1)c1ccc(O)cc1 [compound 135, Bisphenol A]
- Log (CLint) (Actual) (UGT1A9 [1]; human, pH 7.4): 1.68

Compound: O=C(/C=C/c1ccccc1)c1ccccc1O [compound 5, 2′-Hydroxychalcone]
- Log (CLint) (Actual) (UGT1A9 [1]; human, pH 7.4): 3.12

Compound: CCc1c2c(nc3ccc(O)cc13)-c1cc3c(c(=O)n1C2)COC(=O)[C@]3(O)CC [compound 144, SN-38]
- CLint (Vmax/Km) (UGT1A9 [1]): 3 µL/min/mg
- Log (CLint) (Actual) (UGT1A9 [1]; human): 0.44

Compound: O=c1cc(-c2cccc(O)c2)oc2cc(O)c(O)cc12 [compound 36, 6,7,3′-Trihydroxflavone]
- CLint (Vmax/Km) (UGT1A9 [1]): 775 µL/min/mg
- Log (CLint) (Actual) (UGT1A9 [1]; human): 2.89
- Km (UGT1A9 [1]; pH 7.4): 3.01 µM

Compound: CCOc1ccc(O)cc1 [compound 113, 4-Ethoxyphenol]
- Log (CLint) (Actual) (UGT1A9 [2]): 0.92

Compound: COc1ccc(-c2oc3cc(OC)ccc3c(=O)c2O)cc1 [compound 79, 3-Hydroxy-7,4′-dimethoxyflavone]
- Log (CLint) (Actual) (UGT1A9 [2]): 4.66

Compound: O=c1c(O)c(-c2ccccc2)oc2cccc(O)c12 [compound 61, 3,5-Dihydroxyflavone]
- Log (CLint) (Actual) (UGT1A9 [2]): 3.87

Compound: COc1ccc2oc(-c3ccccc3)c(O)c(=O)c2c1 [compound 78, 3-Hydroxy-6-methoxyflavone]
- Log (CLint) (Actual) (UGT1A9 [2]): 4.86

Compound: O=c1c(O)c(-c2ccc(O)cc2O)oc2cc(O)cc(O)c12 [compound 89, Morin]
- Log (CLint) (Actual) (UGT1A9 [2]): 1.77

Compound: O=C(c1ccccc1)c1ccc(O)cc1 [compound 122, 4-Hydroxybenzophenone]
- Log (CLint) (Actual) (UGT1A9 [2]): 1.83

Compound: COc1cc(OC)c2c(=O)c(O)c(-c3ccccc3)oc2c1 [compound 75, 3-Hydroxy-5,7-dimethoxyflavone]
- Log (CLint) (Actual) (UGT1A9 [2]): 4.40

Compound: O=C(O)/C=C/c1ccc(O)c(O)c1 [97.a, Caffeic Acid]
- Log (CLint) (Actual) (UGT1A9 [2]): 1.04
- Log (CLint) (Actual) (UGT1A9 [2]; listed as 97.b): 0.30

Compound: Cc1ccc2oc(=O)cc(O)c2c1 [compound 11, 4-Hydroxy-6-methylcoumarin]
- Log (CLint) (Actual) (UGT1A9 [2]): 0.59

Compound: C=CCc1ccc(O)c(OC)c1 [compound 131, Eugenol]
- Log (CLint) (Actual) (UGT1A9 [1]; human, pH 7.4): 1.60

Compound: O=c1ccoc2cc(O)ccc12 [compound 8, 7-Hydroxychromone]
- Log (CLint) (Actual) (UGT1A9 [2]): 0.91

Compound: COc1cc(O)c2c(=O)c(O)c(-c3ccc(O)c(O)c3)oc2c1 [compound 93, Rhamnetin]
- Log (CLint) (Actual) (UGT1A9 [2]): 4.65

Compound: O=c1cc(-c2ccc(O)c(O)c2)oc2cc(O)cc(O)c12 [56.a, Luteolin]
- Log (CLint) (Actual) (UGT1A9 [2]): 3.58
- Log (CLint) (Actual) (UGT1A9 [2]; listed as 56.b): 3.32

Compound: O=C(/C=C/c1ccccc1)c1ccc(O)cc1 [compound 6, 4′-Hydroxychalcone]
- Log (CLint) (Actual) (UGT1A9 [2]): 2.29

Compound: Oc1ccc(/C=C/c2cc(O)cc(O)c2)cc1 [compound 138, Resveratrol]
- Log (CLint) (Actual) (UGT1A9 [2]): 1.8

Compound: COc1ccc(-c2coc3cc(O)cc(O)c3c2=O)cc1 [compound 100, Biochanin A]
- CLint (Vmax/Km) (UGT1A9 [1]): 335 µL/min/mg
- Log (CLint) (Actual) (UGT1A9 [1]; human): 2.53
- Km (UGT1A9 [1]; pH 7.4): 1.13 µM

Compound: Cc1c(-c2ccccc2)oc2cc(O)ccc2c1=O [compound 45, 7-Hydroxy-3-methylflavone]
- Log (CLint) (Actual) (UGT1A9 [2]): 3.30

Compound: O=c1cc(-c2ccccc2)oc2cc(O)ccc12 [compound 49, 7-Hydroxyflavone]
- Log (CLint) (Actual) (UGT1A9 [2]): 3.13

Compound: Cc1cc(=O)oc2cc(O)ccc12 [compound 10, 4-Methylumbelliferone]
- Log (CLint) (Actual) (UGT1A9 [2]): 2.48

Compound: Oc1cc(O)c2c(c1)O[C@H](c1cc(O)c(O)c(O)c1)[C@H](O)C2 [compound 2, (−)-Epigallocatechin]
- Log (CLint) (Actual) (UGT1A9 [2]): 1.58

Compound: O=c1cc(-c2ccccc2)oc2cc(O)cc(O)c12 [compound 52, Chrysin]
- Log (CLint) (Actual) (UGT1A9 [1]; human, pH 7.4): 3.96

Compound: Nc1ccc(C(=O)O)c(O)c1 [aminosalicylic acid, reference compound]
- glucuronide metabolite formation on incubation with UGT1A9 (non-substrate) (UGT1A9 [2]; incubating compound with UGT1A9): no metabolite can be detected

Compound: Cc1ccc(O)cc1 [compound 119, 4-Methylphenol]
- Log (CLint) (Actual) (UGT1A9 [1]; human, pH 7.4): 1.39

Compound: CC(=O)CC(c1ccccc1)c1c(O)c2cccc(O)c2oc1=O (stereo not drawn) [compound 13, 8-Hydroxywarfarin]
- Log (CLint) (Actual) (UGT1A9 [2]): 1.40

Compound: CC(=O)c1ccc(O)cc1 [compound 121, 4-Hydroxyacetophenone]
- Log (CLint) (Actual) (UGT1A9 [2]): 1.15

Compound: Cc1cc(O)cc2oc(-c3ccccc3)cc(=O)c12 [compound 48, 7-Hydoxy-5-methylflavone]
- CLint (Vmax/Km) (UGT1A9 [1]): 5712 µL/min/mg
- Log (CLint) (Actual) (UGT1A9 [1]; human): 3.76
- Km (UGT1A9 [1]; pH 7.4): 0.94 µM

Compound: COc1ccc(-c2oc3ccc(OC)cc3c(=O)c2O)cc1 [compound 77, 3-Hydroxy-6,4′-dimethoxyflavone]
- Log (CLint) (Actual) (UGT1A9 [2]): 4.71

Compound: COc1cccc2oc(-c3ccccc3)c(O)c(=O)c12 [compound 76, 3-Hydroxy-5-methoxyflavone]
- Log (CLint) (Actual) (UGT1A9 [2]): 4.36

Compound: CCCOC(=O)c1ccc(O)cc1 [compound 134, Propyl-4-hydroxybenzoate]
- Log (CLint) (Actual) (UGT1A9 [1]; human, pH 7.4): 1.48

Compound: O=C1[C@H](CC[C@H](O)c2ccc(F)cc2)[C@@H](c2ccc(O)cc2)N1c1ccc(F)cc1 [compound 141, Ezetimibe, reference compound]
- Log (CLint) (Actual) (UGT1A9 [2]): −0.56

Compound: Oc1ccc(N=Nc2ccccc2)cc1 [compound 124, 4-Phenylazophenol]
- CLint (Vmax/Km) (UGT1A9 [1]): 14 µL/min/mg
- Log (CLint) (Actual) (UGT1A9 [1]; human): 1.15
- Km (UGT1A9 [1]; pH 7.4): 82.5 µM

Compound: O=C1c2ccc(O)cc2OCC1c1ccc(O)cc1 (stereo not drawn) [compound 102, Dihydrodaidzein]
- CLint (Vmax/Km) (UGT1A9 [1]): 8.1 µL/min/mg
- Log (CLint) (Actual) (UGT1A9 [1]; human): 0.91
- Km (UGT1A9 [1]; pH 7.4): 77.7 µM

Compound: COc1c(O)cc(O)c2c(=O)cc(-c3ccccc3)oc12 [compound 58, Wogonin]
- Log (CLint) (Actual) (UGT1A9 [2]): 3.60

Compound: O=c1cc(-c2ccccc2O)oc2ccccc12 [compound 28, 2′-Hydroxyflavone]
- Log (CLint) (Actual) (UGT1A9 [2]): 2.27

Compound: O=c1cc(-c2ccccc2O)oc2cc(O)ccc12 [compound 42, 7,2′-Dihydroxyflavone]
- Log (CLint) (Actual) (UGT1A9 [2]): 2.77

Compound: CCCCOC(=O)c1ccc(O)cc1 [compound 129, Butyl-4-hydroxybenzoate]
- Log (CLint) (Actual) (UGT1A9 [2]): 1.51

Compound: O=c1c(O)c(-c2ccc(O)cc2)oc2cc(O)cc(O)c12 [88.a, Kaempferol]
- Log (CLint) (Actual) (UGT1A9 [2]): 3.78
- Log (CLint) (Actual) (UGT1A9 [2]; listed as 88.b): 2.34

Compound: O=c1cc(-c2ccccc2O)oc2cc(O)cc(O)c12 [compound 40, 5,7,2′-Trihydroxyflavone]
- Log (CLint) (Actual) (UGT1A9 [2]): 3.57

Compound: COc1c(C)c2c(c(O)c1C/C=C(\C)CCC(=O)O)C(=O)OC2 [compound 142, Mycophenolic Acid, reference compound]
- Log (CLint) (Actual) (UGT1A9 [2]): 1.96

Compound: CN(C)CCc1c[nH]c2cccc(O)c12 [compound 143, Psilocin]
- Log (CLint) (Actual) (UGT1A9 [1]; human, pH 7.4): 0.90

Compound: COc1ccccc1-c1cc(=O)c2ccc(O)cc2o1 [compound 44, 7-Hydroxy-2′-methoxyflavone]
- Log (CLint) (Actual) (UGT1A9 [2]): 3.00

Compound: COc1c(O)cc2oc(-c3ccc(O)c(O)c3)cc(=O)c2c1O [compound 39, 6-Methoxyluteolin]
- Log (CLint) (Actual) (UGT1A9 [2]): 3.22

Compound: COc1ccc(-c2oc3cc(O)cc(O)c3c(=O)c2OC)cc1OCc1ccccc1 [compound 30, 3′-Benzyloxy-5,7-dihydroxy-3,4′-dimethoxyflavone]
- Log (CLint) (Actual) (UGT1A9 [2]): 3.22

Compound: COc1cc2ccc(=O)oc2cc1O [compound 14, Scopoletin]
- Log (CLint) (Actual) (UGT1A9 [2]): 2.28

Compound: O=C(c1ccc(OCCN2CCCCC2)cc1)c1c(-c2ccc(O)cc2)sc2cc(O)ccc12 [compound 22, Raloxifene, reference compound]
- Log (CLint) (Actual) (UGT1A9 [2]): 1.31

Compound: O=c1cc(-c2ccc(O)cc2)oc2ccccc12 [compound 32, 4′-Hydroxyflavone]
- Log (CLint) (Actual) (UGT1A9 [2]): 1.83

Compound: CCN(CC)C(=O)/C(C#N)=C/c1cc(O)c(O)c([N+](=O)[O-])c1 [compound 140, Entacapone, reference compound]
- Log (CLint) (Actual) (UGT1A9 [2]): 4.01

Compound: COc1ccc(-c2oc3cc(O)ccc3c(=O)c2O)cc1OC [69.a, 3,7-Dihydroxy-3′,4′-dimethoxyflavone]
- Log (CLint) (Actual) (UGT1A9 [2]; listed as 69.b): 1.00

Compound: CCCc1ccc(O)cc1 [compound 126, 4-n-Propylphenol]
- Log (CLint) (Actual) (UGT1A9 [2]): 1.62
